From PubChem BioAssay (NCI)
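1) Cells in 96-well plates. 2) Compound, 48 h, 5 concentrations. 3) Linear interpolation between surrounding doses. 4) Unreached endpoint = highest concentration. The concentration for 50% growth inhibition is given as GI50. TGI marks complete inhibition of growth.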

Tests used:
Assay in all cases: growth of human tumour cells (NCI), 48 h
OVCAR-5 ovarian = tested on: OVCAR-5 ovarian
SK-MEL-2 melanoma = tested on: SK-MEL-2 melanoma
RPMI-8226 leukemia = tested on: RPMI-8226 leukemia
ACHN renal = tested on: ACHN renal
OVCAR-8 ovarian = tested on: OVCAR-8 ovarian
MCF7 breast = tested on: MCF7 breast
PC-3 prostate = tested on: PC-3 prostate
EKVX NSCLC = tested on: EKVX NSCLC
HCC-2998 colon = tested on: HCC-2998 colon
HOP-62 NSCLC = tested on: HOP-62 NSCLC
KM12 colon = tested on: KM12 colon
CCRF-CEM leukemia = tested on: CCRF-CEM leukemia
UACC-257 melanoma = tested on: UACC-257 melanoma
NCI-H460 lung = tested on: NCI-H460 lung
SK-MEL-28 melanoma = tested on: SK-MEL-28 melanoma
786-0 renal = tested on: 786-0 renal
SR leukemia = tested on: SR leukemia
HT29 colon = tested on: HT29 colon
HCT-15 colon = tested on: HCT-15 colon
SF-295 CNS = tested on: SF-295 CNS
SW-620 colon = tested on: SW-620 colon
MALME-3M melanoma = tested on: MALME-3M melanoma
MOLT-4 leukemia = tested on: MOLT-4 leukemia
SNB-75 CNS = tested on: SNB-75 CNS
OVCAR-3 ovarian = tested on: OVCAR-3 ovarian
SF-268 CNS = tested on: SF-268 CNS
A498 renal = tested on: A498 renal
U251 CNS = tested on: U251 CNS
HS 578T breast = tested on: HS 578T breast
NCI-H226 lung = tested on: NCI-H226 lung
A549 NSCLC = tested on: A549 NSCLC
HL-60(TB) leukemia = tested on: HL-60(TB) leukemia
K-562 leukemia = tested on: K-562 leukemia
NCI-H23 lung = tested on: NCI-H23 lung
HCT-116 colon = tested on: HCT-116 colon
SF-539 CNS = tested on: SF-539 CNS
SN12C renal = tested on: SN12C renal
NCI-H522 lung = tested on: NCI-H522 lung
SK-MEL-5 melanoma = tested on: SK-MEL-5 melanoma
HOP-92 NSCLC = tested on: HOP-92 NSCLC
UO-31 renal = tested on: UO-31 renal
T-47D breast = tested on: T-47D breast
SNB-19 CNS = tested on: SNB-19 CNS
RXF 393 renal = tested on: RXF 393 renal
NCI/ADR-RES ovarian = tested on: NCI/ADR-RES ovarian
M14 melanoma = tested on: M14 melanoma
MDA-MB-231 breast = tested on: MDA-MB-231 breast
LOX IMVI melanoma = tested on: LOX IMVI melanoma
TK-10 renal = tested on: TK-10 renal
OVCAR-4 ovarian = tested on: OVCAR-4 ovarian
IGROV1 ovarian = tested on: IGROV1 ovarian
DU-145 prostate = tested on: DU-145 prostate
CAKI-1 renal = tested on: CAKI-1 renal
MDA-MB-435 = tested on: MDA-MB-435

Work on `Cc1ncc([N+](=O)[O-])n1CC(O)Cn1cnc([N+](=O)[O-])n1` (stereo not drawn) yielded a TGI (OVCAR-5 ovarian) of over 100 µM, a TGI (SK-MEL-2 melanoma) of over 100 µM and a TGI (RPMI-8226 leukemia) of over 100 µM. For the same compound, the TGI (ACHN renal) was over 100 µM, the TGI (OVCAR-8 ovarian) was over 100 µM and the TGI (MCF7 breast) was over 100 µM. For the same compound, the TGI (PC-3 prostate) was over 100 µM, the TGI (EKVX NSCLC) was over 100 µM and the TGI (HCC-2998 colon) was over 100 µM. The TGI (HOP-62 NSCLC) was over 100 µM, the TGI (KM12 colon) was over 100 µM and the TGI (CCRF-CEM leukemia) was over 100 µM. For the same compound, the TGI (UACC-257 melanoma) was over 100 µM, the TGI (NCI-H460 lung) was over 100 µM and the TGI (SK-MEL-28 melanoma) was over 100 µM. For the same compound, the TGI (786-0 renal) was over 100 µM, the TGI (SR leukemia) was over 100 µM and the TGI (HT29 colon) was over 100 µM. The TGI (HCT-15 colon) was over 100 µM, the TGI (SF-295 CNS) was over 100 µM and the TGI (SW-620 colon) was over 100 µM. It also gave a TGI (MALME-3M melanoma) of over 100 µM, a TGI (MOLT-4 leukemia) of over 100 µM and a TGI (SNB-75 CNS) of over 100 µM. It also gave a TGI (OVCAR-3 ovarian) of over 100 µM, a TGI (SF-268 CNS) of over 100 µM and a TGI (A498 renal) of over 100 µM. For the same compound, the TGI (U251 CNS) was over 100 µM, the TGI (HS 578T breast) was over 100 µM and the TGI (NCI-H226 lung) was over 100 µM. For the same compound, the TGI (A549 NSCLC) was over 100 µM, the TGI (HL-60(TB) leukemia) was over 100 µM and the TGI (K-562 leukemia) was over 100 µM. The TGI (NCI-H23 lung) was over 100 µM, the TGI (HCT-116 colon) was over 100 µM and the TGI (SF-539 CNS) was over 100 µM. The TGI (SN12C renal) was over 100 µM, the TGI (NCI-H522 lung) was over 100 µM and the TGI (SK-MEL-5 melanoma) was over 100 µM.

Work on `CN1CCN(CCCOc2ccc3ncnc(Nc4ccc(Oc5cccc(C(F)(F)F)c5)c(Cl)c4)c3c2)CC1` yielded a GI50 (OVCAR-5 ovarian) of 1.7 µM, a TGI (OVCAR-5 ovarian) of 3.46 µM and a GI50 (HOP-92 NSCLC) of 1.33 µM. It also gave a TGI (HOP-92 NSCLC) of 3.9 µM, a GI50 (SK-MEL-2 melanoma) of 1.86 µM and a TGI (SK-MEL-2 melanoma) of 3.72 µM. It also gave a GI50 (UO-31 renal) of 1.21 µM, a TGI (UO-31 renal) of 2.44 µM and a GI50 (T-47D breast) of 1.39 µM. The TGI (T-47D breast) was 4.02 µM, the GI50 (ACHN renal) was 1.26 µM and the TGI (ACHN renal) was 2.55 µM. For the same compound, the GI50 (SNB-19 CNS) was 1.83 µM, the TGI (SNB-19 CNS) was 3.8 µM and the GI50 (OVCAR-8 ovarian) was 2.78 µM. It also gave a TGI (OVCAR-8 ovarian) of 10.7 µM, a GI50 (MCF7 breast) of 1.38 µM and a TGI (MCF7 breast) of 3.06 µM. The GI50 (PC-3 prostate) was 1.71 µM, the TGI (PC-3 prostate) was 3.91 µM and the GI50 (EKVX NSCLC) was 1.16 µM. The TGI (EKVX NSCLC) was 3.4 µM, the GI50 (RXF 393 renal) was 1.49 µM and the TGI (RXF 393 renal) was 2.93 µM. For the same compound, the GI50 (NCI/ADR-RES ovarian) was 2.4 µM, the TGI (NCI/ADR-RES ovarian) was 8.62 µM and the GI50 (HCC-2998 colon) was 1.55 µM. It also gave a TGI (HCC-2998 colon) of 3.16 µM, a GI50 (KM12 colon) of 1.86 µM and a TGI (KM12 colon) of 4.01 µM. The GI50 (CCRF-CEM leukemia) was 2.32 µM, the TGI (CCRF-CEM leukemia) was 7.46 µM and the GI50 (UACC-257 melanoma) was 1.82 µM. It also gave a TGI (UACC-257 melanoma) of 3.75 µM, a GI50 (M14 melanoma) of 1.87 µM and a TGI (M14 melanoma) of 3.87 µM. It also gave a GI50 (MDA-MB-231 breast) of 1.72 µM, a TGI (MDA-MB-231 breast) of 3.15 µM and a GI50 (NCI-H460 lung) of 1.73 µM. It also gave a TGI (NCI-H460 lung) of 3.37 µM, a GI50 (SK-MEL-28 melanoma) of 1.63 µM and a TGI (SK-MEL-28 melanoma) of 3.01 µM. For the same compound, the GI50 (HT29 colon) was 1.13 µM, the TGI (HT29 colon) was 3.63 µM and the GI50 (HCT-15 colon) was 1.33 µM. The TGI (HCT-15 colon) was 2.88 µM, the GI50 (LOX IMVI melanoma) was 1.3 µM and the TGI (LOX IMVI melanoma) was 2.81 µM. For the same compound, the GI50 (SF-295 CNS) was 1.66 µM, the TGI (SF-295 CNS) was 3.13 µM and the GI50 (TK-10 renal) was 1.5 µM. For the same compound, the TGI (TK-10 renal) was 3.09 µM, the GI50 (SW-620 colon) was 1.76 µM and the TGI (SW-620 colon) was 3.45 µM. The GI50 (MALME-3M melanoma) was 1.5 µM, the TGI (MALME-3M melanoma) was 2.89 µM and the GI50 (MOLT-4 leukemia) was 1.83 µM. The TGI (MOLT-4 leukemia) was 4.8 µM, the GI50 (OVCAR-4 ovarian) was 1.76 µM and the TGI (OVCAR-4 ovarian) was 5.04 µM. It also gave a GI50 (SNB-75 CNS) of 1.15 µM, a TGI (SNB-75 CNS) of 3.13 µM and a GI50 (OVCAR-3 ovarian) of 1.09 µM. The TGI (OVCAR-3 ovarian) was 2.56 µM, the GI50 (SF-268 CNS) was 1.44 µM and the TGI (SF-268 CNS) was 3.12 µM. For the same compound, the GI50 (IGROV1 ovarian) was 0.908 µM, the TGI (IGROV1 ovarian) was 2.43 µM and the GI50 (A498 renal) was 1.42 µM. It also gave a TGI (A498 renal) of 3.23 µM, a GI50 (U251 CNS) of 1.54 µM and a TGI (U251 CNS) of 3.2 µM. It also gave a GI50 (HS 578T breast) of 1.67 µM, a TGI (HS 578T breast) of 4.22 µM and a GI50 (NCI-H226 lung) of 21 µM. For the same compound, the TGI (NCI-H226 lung) was 52 µM, the GI50 (A549 NSCLC) was 1.27 µM and the TGI (A549 NSCLC) was 2.74 µM. The GI50 (HL-60(TB) leukemia) was 1.89 µM, the TGI (HL-60(TB) leukemia) was 4.52 µM and the GI50 (DU-145 prostate) was 1.66 µM. For the same compound, the TGI (DU-145 prostate) was 3.49 µM, the GI50 (CAKI-1 renal) was 1.31 µM and the TGI (CAKI-1 renal) was 3.07 µM. It also gave a GI50 (K-562 leukemia) of 1.17 µM, a TGI (K-562 leukemia) of 4 µM and a GI50 (NCI-H23 lung) of 1.81 µM. The TGI (NCI-H23 lung) was 4.04 µM, the GI50 (SF-539 CNS) was 1.6 µM and the TGI (SF-539 CNS) was 3 µM. It also gave a GI50 (SN12C renal) of 1.26 µM, a TGI (SN12C renal) of 2.57 µM and a GI50 (MDA-MB-435) of 1.53 µM. The TGI (MDA-MB-435) was 3.09 µM.
